From patent US8957001B2, “Particles comprising a biopolymer which is degradable under the effect of an electromagnetic wave as emitted by a solar radiation” (BASF Beauty Care Solutions France SAS, priority 2002, dated 2015)

Test: Progressive release of an encapsulated active from liposomes under UV irradiation
Format: physicochemical
From the text: All is done in a manner identical to what is presented in Example 15, but RNA of marine origin, which is commercially available, is used in amounts which are identical to those used in Example 15. All is done in a manner identical to what is presented in Example 15, but DNA of plant origin or RNA of plant origin, which are commercially available (Inocosm), are used in amounts which are identical to those used in Example 15. All is done in a manner identical to what is presented in Example 15, but oligonucleosides or oligonucleotides, which are prepared by chemical synthesis and which are available from companies which manufacture these nucleosides or these nucleotides to order, are used for preparing these particles, in proportions which are identical to those used in Example 15.

Compound	release under UV irradiation (encapsulated in plant DNA or plant RNA liposomes (Example 17), after 3 hours of irradiation) [%]	release under UV irradiation (encapsulated in plant DNA or plant RNA liposomes (Example 17), after 6 hours of irradiation) [%]	release under UV irradiation (encapsulated in marine RNA liposomes (Example 16), after 3 hours of irradiation) [%]	release under UV irradiation (encapsulated in marine RNA liposomes (Example 16), after 6 hours of irradiation) [%]
CCCCC(CC)COC(=O)C=Cc1ccc(OC)cc1 (stereo not shown) [Parsol MCX]	60	96	–	–
tocopherol	–	–	40	80
